Assay results published in US9688695B2, “Imidazothiadiazole and imidazopyrazine derivatives as protease activated receptor 4 (PAR4) inhibitors for treating platelet aggregation” (BRISTOL-MYERS SQUIBB COMPANY, priority 2012, dated 2017).

These molecules were tested against PAR4 (Homo sapiens (Human), UniProt Q96RI0) (assay: FLIPR assay in PAR4-expressing HEK293 cells (PAR4 antagonist activity, calcium mobilization)). Conditions: H-Ala-Phe(4-F)-Pro-Gly-Trp-Leu-Val-Lys-Asn-Gly-NH2-induced calcium mobilization.
Chain of PAR4 (Q96RI0 18-385): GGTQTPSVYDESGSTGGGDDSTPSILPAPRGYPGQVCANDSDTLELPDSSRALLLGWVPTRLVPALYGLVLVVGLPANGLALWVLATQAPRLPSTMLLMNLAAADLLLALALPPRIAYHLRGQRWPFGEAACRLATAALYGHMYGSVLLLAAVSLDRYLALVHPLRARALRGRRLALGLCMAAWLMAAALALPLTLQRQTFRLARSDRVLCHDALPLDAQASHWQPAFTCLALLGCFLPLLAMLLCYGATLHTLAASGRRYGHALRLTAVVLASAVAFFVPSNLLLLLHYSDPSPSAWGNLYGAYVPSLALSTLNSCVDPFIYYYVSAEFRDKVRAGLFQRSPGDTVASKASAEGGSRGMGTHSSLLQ
Format: cell-based
Description: The FLIPR assay is an exemplary in vitro assay for measuring the activity of the PAR4 antagonists of the present invention. In this assay, intracellular calcium mobilization is induced in PAR4 expressing cells by a PAR4 agonist and calcium mobilization is monitored. See, e.g., Example A.
HEK293 cells stably expressing PAR4 were generated by a standard method of transfection of human […] cDNA expression vector or by RAGE technology from Athersys Inc. (Cleveland, Ohio) and selected based on PAR4 protein expression of mRNA expression. […] These cells express endogenous PAR1 and can elicit calcium signal upon stimulation with PAR1 agonist peptide.
Counter screens for agonist activity and PAR1 antagonist activity were also performed. Briefly, HEK293 EBNA PAR4 clone 20664.1J cells were plated 24 hrs. prior to experiment in 384 well, Poly-D-Lysine coated, black, clear bottom plates (Greiner Bio-One, Monroe, N.C.). Cells were plated at 20,000 cells/well in […] growth medium and incubated at 37° C. with 5% CO2 overnight. At time of assay, media was replaced with 40 μl 1× Hank's Buffered Saline Solution (HBSS) (with 10 mM HEPES) and 20 μl test compound also diluted in 1×HBSS buffer was added at various concentrations and 0.67% DMSO final concentration on the FDSS for agonist measurement. The cells were then incubated for 30 minutes at room temperature followed by addition of 20 μl of agonist peptide for antagonist measurement on the FDSS.
As indicated above, the FLIPR assay, an in vitro assay, measures the PAR4 antagonist activity of compounds tested as described in Example A. The PRP assay, an in vitro assay, measures the PAR4 antagonist assay of the compounds tested in the presence of plasma proteins and thrombin agonist as described in Example C.
Work on `COc1cc(OCc2nc(N3CCOCC3)sc2CO)c2cc(-c3cn4nc(OC)sc4n3)oc2c1` [Example 89, (4-(((6-Methoxy-2-(2-methoxyimidazo[2,1-b][1,3,4]thiadiazol-6-yl)benzofuran-4-yl)oxy)methyl)-2-morpholinothiazol-5-yl)methanol] yielded an EC50 of 0.69 nM. `COCc1sc(N2CCOCC2)nc1COc1cc(OC)cc2oc(-c3cn4nc(OC)sc4n3)cc12` [Example 90, 4-(4-(((6-Methoxy-2-(2-methoxyimidazo[2,1-b][1,3,4]thiadiazol-6-yl)benzofuran-4-yl)oxy)methyl)-5-(methoxymethyl)thiazol-2-yl)morpholine] showed an EC50 of 0.33 nM. Work on `COc1cc(OCc2nc(N3CCOCC3)sc2C(C)(C)O)c2cc(-c3cn4nc(OC)sc4n3)oc2c1` [Example 91, 2-(4-(((6-Methoxy-2-(2-methoxyimidazo[2,1-b][1,3,4]thiadiazol-6-yl)benzofuran-4-yl)oxy)methyl)-2-morpholinothiazol-5-yl)propan-2-ol] yielded an EC50 of 0.27 nM. For `COc1cc(OCc2nc(C3CCOCC3)sc2C)c2cc(-c3cn4nc(OC)sc4n3)oc2c1` [Example 95, 2-Methoxy-6-(6-methoxy-4-((5-methyl-2-(tetrahydro-2H-pyran-4-yl)thiazol-4-yl)methoxy)benzofuran-2-yl)imidazo[2,1-b][1,3,4]thiadiazole], the EC50 was 0.83 nM. For `COc1cc(OCc2nc(N3CCOCC3)oc2C)c2cc(-c3cn4nc(OC)sc4n3)oc2c1` [Example 97, 4-(4-(((6-Methoxy-2-(2-methoxyimidazo[2,1-b][1,3,4]thiadiazol-6-yl)benzofuran-4-yl)oxy)methyl)-5-methyloxazol-2-yl)morpholine], the EC50 was 0.63 nM. `COc1cc(OCc2coc(N3CC4CCC(C3)O4)n2)c2cc(-c3cn4nc(OC)sc4n3)oc2c1` [Example 98, 3-(4-(((6-Methoxy-2-(2-methoxyimidazo[2,1-b][1,3,4]thiadiazol-6-yl)benzofuran-4-yl)oxy)methyl)oxazol-2-yl)-8-oxa-3-azabicyclo[3.2.1]octane] showed an EC50 of 0.37 nM. With `COc1cc(OCc2csc(N3CCN(C(=O)OC(C)(C)C)CC3)n2)c2cc(-c3cn4nc(OC)sc4n3)oc2c1` [Example 99, tert-Butyl 4-(4-(((6-methoxy-2-(2-methoxyimidazo[2,1-b][1,3,4]thiadiazol-6-yl)benzofuran-4-yl)oxy)methyl)thiazol-2-yl)piperazine-1-carboxylate] the EC50 was 0.84 nM. `COc1cc(OCc2csc(N3CCN(S(C)(=O)=O)CC3)n2)c2cc(-c3cn4nc(OC)sc4n3)oc2c1` [Example 100, 2-Methoxy-6-(6-methoxy-4-((2-(4-(methylsulfonyl)piperazin-1-yl)thiazol-4-yl)methoxy)benzofuran-2-yl)imidazo[2,1-b][1,3,4]thiadiazole] was tested, and the EC50 was 0.25 nM. In the case of `COc1cc(OCc2csc(N3CCN(S(=O)(=O)c4ccc(C#N)cc4)CC3)n2)c2cc(-c3cn4nc(OC)sc4n3)oc2c1` [Example 101, 4-((4-(4-(((6-Methoxy-2-(2-methoxyimidazo[2,1-b][1,3,4]thiadiazol-6-yl)benzofuran-4-yl)oxy)methyl)thiazol-2-yl)piperazin-1-yl)sulfonyl)benzonitrile], the EC50 is reported as 0.36 nM. `COc1cc(OCc2csc(N3CCN(S(=O)(=O)C(C)C)CC3)n2)c2cc(-c3cn4nc(OC)sc4n3)oc2c1` [Example 102, 6-(4-((2-(4-(Isopropylsulfonyl)piperazin-1-yl)thiazol-4-yl)methoxy)-6-methoxybenzofuran-2-yl)-2-methoxyimidazo[2,1-b][1,3,4]thiadiazole] showed an EC50 of 2.3 nM. With `COc1cc(OCc2csc(N3CC4(COC4)C3)n2)c2cc(-c3cn4nc(OC)sc4n3)oc2c1` [Example 104, 6-(4-(((6-Methoxy-2-(2-methoxyimidazo[2,1-b][1,3,4]thiadiazol-6-yl)benzofuran-4-yl)oxy)methyl)thiazol-2-yl)-2-oxa-6-azaspiro[3.3]heptane] the EC50 was 0.68 nM. `CCc1sc(N2CCOCC2)nc1COc1cc(OC)cc2oc(-c3cn4nc(OC)sc4n3)cc12` [Example 105, 4-(5-Ethyl-4-(((6-methoxy-2-(2-methoxyimidazo[2,1-b][1,3,4]thiadiazol-6-yl)benzofuran-4-yl)oxy)methyl)thiazol-2-yl)morpholine] showed an EC50 of 0.32 nM. `COc1cc(OCc2csc(N(C)CCC#N)n2)c2cc(-c3cn4nc(OC)sc4n3)oc2c1` [Example 106, 3-((4-(((6-Methoxy-2-(2-methoxyimidazo[2,1-b][1,3,4]thiadiazol-6-yl)benzofuran-4-yl)oxy)methyl)thiazol-2-yl)(methyl)amino)propanenitrile] gave an EC50 of 0.98 nM. `COC[C@@H]1CCCN1c1nc(COc2cc(OC)cc3oc(-c4cn5nc(OC)sc5n4)cc23)cs1` [Example 107, (S)-2-Methoxy-6-(6-methoxy-4-((2-(2-(methoxymethyl)pyrrolidin-1-yl)thiazol-4-yl)methoxy)benzofuran-2-yl)imidazo[2,1-b][1,3,4]thiadiazole] gave an EC50 of 1.3 nM. Work on `COc1cc(OCc2csc(Nc3ccc(Br)cc3C)n2)c2cc(-c3cn4nc(OC)sc4n3)oc2c1` [Example 108, N-(4-Bromo-2-methylphenyl)-4-(((6-methoxy-2-(2-methoxyimidazo[2,1-b][1,3,4]thiadiazol-6-yl)benzofuran-4-yl)oxy)methyl)thiazol-2-amine] yielded an EC50 of 1.2 nM. `COc1cc(OCc2csc(C3CCN(C(=O)OC(C)(C)C)CC3)n2)c2cc(-c3cn4nc(OC)sc4n3)oc2c1` [Example 109, tert-Butyl 4-(4-(((6-methoxy-2-(2-methoxyimidazo[2,1-b][1,3,4]thiadiazol-6-yl)benzofuran-4-yl)oxy)methyl)thiazol-2-yl)piperidine-1-carboxylate] showed an EC50 of 0.69 nM. For `COc1cc(OCc2csc(C3CCN(C(=O)c4ccccc4)CC3)n2)c2cc(-c3cn4nc(OC)sc4n3)oc2c1` [Example 110, (4-(4-(((6-Methoxy-2-(2-methoxyimidazo[2,1-b][1,3,4]thiadiazol-6-yl)benzofuran-4-yl)oxy)methyl)thiazol-2-yl)piperidin-1-yl)(phenyl)methanone], the EC50 was 0.78 nM. Work on `COc1cc(OCc2csc(C3CCN(S(=O)(=O)C(C)C)CC3)n2)c2cc(-c3cn4nc(OC)sc4n3)oc2c1` [Example 111, 6-(4-((2-(1-(Isopropylsulfonyl)piperidin-4-yl)thiazol-4-yl)methoxy)-6-methoxybenzofuran-2-yl)-2-methoxyimidazo[2,1-b][1,3,4]thiadiazole] yielded an EC50 of 0.86 nM. `COc1cc(OCc2csc(C3CCN(S(C)(=O)=O)CC3)n2)c2cc(-c3cn4nc(OC)sc4n3)oc2c1` [Example 112, 2-Methoxy-6-(6-methoxy-4-((2-(1-(methylsulfonyl)piperidin-4-yl)thiazol-4-yl)methoxy)benzofuran-2-yl)imidazo[2,1-b][1,3,4]thiadiazole] was tested, and the EC50 was 0.37 nM. For `COc1cc(OCc2csc(C3CCN(S(=O)(=O)c4ccccc4)CC3)n2)c2cc(-c3cn4nc(OC)sc4n3)oc2c1` [Example 113, 2-Methoxy-6-(6-methoxy-4-((2-(1-(phenylsulfonyl)piperidin-4-yl)thiazol-4-yl)methoxy)benzofuran-2-yl)imidazo[2,1-b][1,3,4]thiadiazole], the EC50 was 0.43 nM. In the case of `COc1cc(OCc2csc(C3CCN(S(=O)(=O)C(F)(F)F)CC3)n2)c2cc(-c3cn4nc(OC)sc4n3)oc2c1` [Example 114, 2-Methoxy-6-(6-methoxy-4-((2-(1-((trifluoromethyl)sulfonyl)piperidin-4-yl)thiazol-4-yl)methoxy)benzofuran-2-yl)imidazo[2,1-b][1,3,4]thiadiazole], the EC50 is reported as 0.49 nM. Work on `COc1cc(OCc2csc(-c3ccno3)n2)c2cc(-c3cn4nc(OC)sc4n3)oc2c1` [Example 116, 5-(4-(((6-Methoxy-2-(2-methoxyimidazo[2,1-b][1,3,4]thiadiazol-6-yl)benzofuran-4-yl)oxy)methyl)thiazol-2-yl)isoxazole] yielded an EC50 of 0.32 nM. `COc1cc(OCc2csc(-c3cnco3)n2)c2cc(-c3cn4nc(OC)sc4n3)oc2c1` [Example 117, 5-(4-(((6-methoxy-2-(2-methoxyimidazo[2,1-b][1,3,4]thiadiazol-6-yl)benzofuran-4-yl)oxy)methyl)thiazol-2-yl)oxazole] showed an EC50 of 0.43 nM. In the case of `COc1cc(OCc2csc(C3(F)CCOCC3)n2)c2cc(-c3cn4nc(OC)sc4n3)oc2c1` [Example 119, 6-(4-((2-(4-Fluorotetrahydro-2H-pyran-4-yl)thiazol-4-yl)methoxy)-6-methoxybenzofuran-2-yl)-2-methoxyimidazo[2,1-b][1,3,4]thiadiazole], the EC50 is reported as 0.72 nM. For `COc1cc(OCc2csc(C3(OC)CCOCC3)n2)c2cc(-c3cn4nc(OC)sc4n3)oc2c1` [Example 120, 2-Methoxy-6-(6-methoxy-4-((2-(4-methoxytetrahydro-2H-pyran-4-yl)thiazol-4-yl)methoxy)benzofuran-2-yl)imidazo[2,1-b][1,3,4]thiadiazole], the EC50 was 0.45 nM. Work on `COc1cc(OCc2csc(C3(F)CC(C)OC(C)C3)n2)c2cc(-c3cn4nc(OC)sc4n3)oc2c1` (centres unmarked) [Example 122, 6-(4-((2-(4-Fluoro-2,6-dimethyltetrahydro-2H-pyran-4-yl)thiazol-4-yl)methoxy)-6-methoxybenzofuran-2-yl)-2-methoxy-imidazo[2,1-b][1,3,4]thiadiazole] yielded an EC50 of 0.72 nM.
